Results taken from patent US6511979B1, “Methods for treating conditions modulated by lactosylceramide” (Johns Hopkins University, priority 1998, dated 2003).
Entries after “also recorded” stand apart in the source; their conditions may differ.

What was measured:
vascular cells = settings: reported in literature; cited from earlier work
GlcT-1 = biological target: T1, GlcT-1 (Homo sapiens, UniProt Q16739); settings: reported in literature; cited from earlier work
T1 sequence (Q16739 1-394): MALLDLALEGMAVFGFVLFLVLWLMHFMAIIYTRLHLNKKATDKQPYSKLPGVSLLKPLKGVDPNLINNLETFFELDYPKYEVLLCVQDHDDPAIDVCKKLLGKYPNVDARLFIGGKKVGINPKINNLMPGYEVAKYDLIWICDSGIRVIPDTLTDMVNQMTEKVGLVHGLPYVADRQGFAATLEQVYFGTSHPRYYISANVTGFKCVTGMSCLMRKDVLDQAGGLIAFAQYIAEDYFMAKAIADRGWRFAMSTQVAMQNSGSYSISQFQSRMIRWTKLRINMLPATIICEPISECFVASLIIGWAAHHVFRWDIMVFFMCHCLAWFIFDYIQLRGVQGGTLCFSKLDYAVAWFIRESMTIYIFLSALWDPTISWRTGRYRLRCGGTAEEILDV

LacCer-responsive cells [1] = experiment: cell proliferation in LacCer-responsive cells; assay type: cell-based
Protocol: Preferably, the GalT-2 enhancing compound promotes cell proliferation by at least 10 to 25%, preferably at least about 50%, relative to a suitable control assay. In such an assay, between about 0.1 to 100 μM, preferably between about 1 to 50 μM of a desired GalT-2 enhancing compound is used. Exemplary cell proliferation assays include counting viable cells and monitoring activity of specified citric acid cycle enzymes such as lactate dehydrogenase. A preferred assay measures incorporation of one or more detectably-labeled nucleosides into DNA, e.g., by:
a) culturing suitable cells in medium and adding 1) a candidate GalT-2 enhancing compound and 2) a radiolabeled nucleoside such as ^3H-thymidine typically in an amount between about 0.1 to 100 μCi;
b) incubating the cells, e.g., for about 6-24 hours, and typically followed by washing; and
The measurement can be achieved by several methods including trichloroacetic acid (TCA) precipitation of labeled DNA on filters followed by scintillation counting. See e.g., Chatterjee, S., Biochem. Biophys. Res Comm. (1991) 181:554; Chatterjee, S. et al. (1982) Eur. J. Biochem. 120:435 for disclosure relating to this assay.
References herein to a “standard in vitro cell proliferation assay” or other similar phrase refer to an assay that includes the above steps a) through c). […]

GalT-2 = GalT-2 activity assay (standard in vitro GalT-2 assay / GalT-2 enzyme assay); assay type: cell-based
Text: Preferred in vitro detection assays according to the present invention involve one or more steps associated with LacCer-related pathways. Such assays include the following steps 1) through 4):
1) culturing a population of LacCer-responsive cells with LacCer;
2) adding a known or candidate GalT-2 enhancing compound to the cells;
3) measuring activity of a cell molecule or function in the LacCer-related pathway; and
4) determining the effect of the known or candidate GalT-2 enhancing compound on the cell, e.g., by measuring activity of the cell molecule or function. Typically, the cell function will be one or more of cell proliferation, cell adhesion or expression of specified surface proteins on the cells. Examples of cell molecules include LacCer-responsive enzymes as specified below.
That assay can effectively measure the capacity of the GalT-2 enhancing compound to promote GalT-2 activity. References herein to a “standard in vitro GalT-2 assay” or other similar phrase refers to the above protocol of steps 1) through 4) when the specified cell molecule measured in step 3) above is GalT-2. As described in more detail below, other in vitro assays of the invention measure specified cell molecules in the LacCer-related steps or pathways. The in vitro assays of the present invention can be conducted with nearly any population of cells responsive to LacCer as provided below. […]

LacCer-responsive cells [2] = experiment: cell adhesion in LacCer-responsive cells; assay type: cell-based
Protocol: Preferably, the GalT-2 enhancing compound increases cell adhesion by at least 25%, preferably at least 50% or more relative to a suitable control assay. In such an assay, between about 0.1 to 100 μM, preferably between about 1 to 50 μM of a desired GalT-2 enhancing compound is used. For example, a preferred cell adhesion assay includes the following steps:
a) labeling a first population of immune cells, preferably certain leukocytes, with a detectable label which can be a chromatic, radioactive, luminescent (e.g., fluorescent, or phosphorescent), or enzymatic label capable of producing a detectable label, […]
References herein to a “standard in vitro cell adhesion assay” or other similar phrase refer to an assay that includes the above steps a) through c). The detection in step c) can be achieved by a variety of methods such as microscopy (by manually counting cells), particularly confocal microscopy and fluorescence-based photomicroscopy involving FACS; automated cell sorting techniques, immunological methods such as ELISA and RIA; and scintillation counting. […]
A preferred in vitro cell adhesion assay measures polymorphonuclear leukocytes (PMNs and/or monocytes) or platelets and increased endothelial cell adhesion before, during or after contact with a desired GalT-2 enhancing compound. […] Adhering cells are then quantitated by standard methods such as by use of a fluorescence plate reader. […]

SMILES | effect on proliferation of vascular cells (vascular cells) | effect on GlcT-1 (GlcT-1) | effect on proliferation in LacCer-responsive cells (LacCer-responsive cells [1]) | effect on GalT-2 activity (GalT-2) | effect on adhesion in LacCer-responsive cells (LacCer-responsive cells [2])
CCCCCCCCCC(=O)NC(CN1CCOCC1)C(O)c1ccccc1 [D-PDMP, 1-phenyl-2-decanolylamino-3-morpholino-1-propanol] | reduces proliferation of vascular cells | inhibits GlcT-1 | – | – | –
CCCCCCCCCC(=O)N[C@@H](CN1CCOCC1)C(O)c1ccccc1 (stereo partly drawn) [L-PDMP, L-1-phenyl-2-decanoylamino-3-morpholino-1-propanol] | – | – | increasing proliferation | increase the activity of GalT-2; also recorded: effectively stimulating GalT-2 | increasing proliferation and adhesion
